Experiments:
[1] = cited from earlier work
[2] = 10 days short term stability study on iloprost standards diluted with isotonic sodium chloride; format: physicochemical; settings: stored at 5° C., after dilution with isotonic sodium chloride solution
Procedure: A: A concentration iloprost equal to 20 μg/ml (was used for the optimization of the HPLC procedure, UV 210 nm)
B: 0.9% sodium chloride in milliQ water (0.9 g NaCl in 100 ml water)
C: 100 μl of A and 900 μl of B: iloprost concentration equal to 2 μg/ml
A 10 days short term stability study was conducted on the standards The test solutions were prepared 11 May 2012 and analysed 11 May 2012, n=2, 15 May 2012, and 21 May 2012 and finally […]. Between the days of analysis the samples were stored at 5° C.

short term stability [2]: No indication on major instability
Structure (SMILES): CC#CCC(C)[C@H](O)/C=C/[C@@H]1[C@H]2C/C(=C/CCCC(=O)O)C[C@H]2C[C@H]1O (stereo partly drawn) [Iloprost, 5-{(E)-(1S,5S,6R,7R)-7-hydroxy-6[(E)-(3S,4RS)-3-hydroxy-4-methyl-1-octen-6-inyl]-bi-cyclo[3.3.0]octan-3-ylidene}pentanoic acid]
solubility in water [1]: very slightly soluble
